Source: ChEMBL document CHEMBL5442219

Tests used:
Conditions in all cases: Compound concentration 10 µM
[1] = target: T1, Alpha-1A adrenergic receptor (Homo sapiens) (UniProt P35348)
T1 sequence (whole entry): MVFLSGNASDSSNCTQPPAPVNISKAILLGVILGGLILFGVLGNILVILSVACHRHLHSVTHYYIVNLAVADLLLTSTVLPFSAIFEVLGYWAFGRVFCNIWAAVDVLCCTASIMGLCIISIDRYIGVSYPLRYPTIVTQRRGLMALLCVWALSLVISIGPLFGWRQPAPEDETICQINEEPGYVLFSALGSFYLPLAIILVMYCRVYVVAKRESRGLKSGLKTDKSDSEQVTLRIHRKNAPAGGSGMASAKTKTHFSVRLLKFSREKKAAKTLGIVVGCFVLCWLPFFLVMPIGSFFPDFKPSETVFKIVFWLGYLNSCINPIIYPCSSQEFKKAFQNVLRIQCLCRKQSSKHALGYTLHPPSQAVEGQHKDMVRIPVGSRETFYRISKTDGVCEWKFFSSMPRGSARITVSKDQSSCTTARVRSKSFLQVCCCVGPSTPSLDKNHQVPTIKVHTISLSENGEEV

[2] = target: D(2) dopamine receptor (Homo sapiens) (UniProt P14416)
[3] = target: Sigma non-opioid intracellular receptor 1 (Homo sapiens) (UniProt Q99720)
[4] = target: D(1B) dopamine receptor (Homo sapiens) (UniProt P21918)
[5] = target: Delta-type opioid receptor (Homo sapiens) (UniProt P41143)
[6] = target: Histamine H3 receptor (Homo sapiens) (UniProt Q9Y5N1)
[7] = target: 5-hydroxytryptamine receptor 6 (Homo sapiens) (UniProt P50406)
[8] = target: 5-hydroxytryptamine receptor 2A (Homo sapiens) (UniProt P28223)
[9] = target: Sigma intracellular receptor 2 (Homo sapiens) (UniProt Q5BJF2)
[10] = target: 5-hydroxytryptamine receptor 1B (Homo sapiens) (UniProt P28222)
[11] = target: Histamine H4 receptor (Homo sapiens) (UniProt Q9H3N8)
[12] = target: Muscarinic acetylcholine receptor M3 (Homo sapiens) (UniProt P20309)
[13] = target: 5-hydroxytryptamine receptor 1E (Homo sapiens) (UniProt P28566)
[14] = target: Histamine H1 receptor (Homo sapiens) (UniProt P35367)
[15] = target: T2, Muscarinic acetylcholine receptor M1 (Homo sapiens) (UniProt P11229)
T2 sequence (whole entry): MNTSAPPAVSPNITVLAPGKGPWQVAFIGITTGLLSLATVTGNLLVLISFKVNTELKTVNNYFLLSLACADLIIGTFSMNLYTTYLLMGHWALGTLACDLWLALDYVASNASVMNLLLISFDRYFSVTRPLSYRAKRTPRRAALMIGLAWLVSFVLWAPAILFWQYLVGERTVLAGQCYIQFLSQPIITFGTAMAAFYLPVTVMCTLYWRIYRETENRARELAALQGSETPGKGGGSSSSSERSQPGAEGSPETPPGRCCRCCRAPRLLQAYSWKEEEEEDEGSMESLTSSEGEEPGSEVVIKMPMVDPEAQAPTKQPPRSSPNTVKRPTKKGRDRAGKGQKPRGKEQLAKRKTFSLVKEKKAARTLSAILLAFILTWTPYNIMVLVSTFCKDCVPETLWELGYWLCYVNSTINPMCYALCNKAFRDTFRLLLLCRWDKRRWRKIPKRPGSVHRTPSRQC

[16] = target: Beta-2 adrenergic receptor (Homo sapiens) (UniProt P07550)
[17] = target: 5-hydroxytryptamine receptor 1D (Homo sapiens) (UniProt P28221)
[18] = target: 5-hydroxytryptamine receptor 5A (Homo sapiens) (UniProt P47898)
[19] = target: D(1A) dopamine receptor (Homo sapiens) (UniProt P21728)
[20] = target: T3, Alpha-2A adrenergic receptor (Homo sapiens) (UniProt P08913)
T3 sequence (whole entry): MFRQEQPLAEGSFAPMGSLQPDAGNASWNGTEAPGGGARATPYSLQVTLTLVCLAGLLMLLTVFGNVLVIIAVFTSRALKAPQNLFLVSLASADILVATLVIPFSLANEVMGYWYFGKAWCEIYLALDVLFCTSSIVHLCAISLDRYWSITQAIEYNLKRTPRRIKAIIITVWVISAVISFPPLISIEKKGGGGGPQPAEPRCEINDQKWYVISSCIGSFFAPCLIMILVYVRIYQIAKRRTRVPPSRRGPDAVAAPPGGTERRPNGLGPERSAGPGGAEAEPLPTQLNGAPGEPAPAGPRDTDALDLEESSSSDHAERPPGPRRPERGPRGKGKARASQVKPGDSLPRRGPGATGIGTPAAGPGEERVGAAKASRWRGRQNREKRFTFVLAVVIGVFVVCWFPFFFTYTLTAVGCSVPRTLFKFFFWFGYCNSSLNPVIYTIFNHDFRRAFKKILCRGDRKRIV

[21] = target: 5-hydroxytryptamine receptor 7 (Homo sapiens) (UniProt P34969)
5-hydroxytryptamine receptor 7 (Homo sapiens), sequence (P34969 whole entry): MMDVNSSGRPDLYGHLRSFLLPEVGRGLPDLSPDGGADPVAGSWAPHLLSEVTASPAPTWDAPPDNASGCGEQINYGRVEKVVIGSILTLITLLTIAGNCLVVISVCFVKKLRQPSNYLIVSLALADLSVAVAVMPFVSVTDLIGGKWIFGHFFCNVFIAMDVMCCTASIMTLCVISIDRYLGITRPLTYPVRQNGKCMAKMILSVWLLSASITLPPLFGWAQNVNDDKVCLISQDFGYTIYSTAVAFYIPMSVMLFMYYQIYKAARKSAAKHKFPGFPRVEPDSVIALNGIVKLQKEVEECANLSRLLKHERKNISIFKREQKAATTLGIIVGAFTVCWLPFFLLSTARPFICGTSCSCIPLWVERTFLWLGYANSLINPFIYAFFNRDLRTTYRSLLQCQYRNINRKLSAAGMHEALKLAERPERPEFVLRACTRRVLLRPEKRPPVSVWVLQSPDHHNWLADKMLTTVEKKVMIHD

D(1B) dopamine receptor (Homo sapiens), sequence (P21918 whole entry): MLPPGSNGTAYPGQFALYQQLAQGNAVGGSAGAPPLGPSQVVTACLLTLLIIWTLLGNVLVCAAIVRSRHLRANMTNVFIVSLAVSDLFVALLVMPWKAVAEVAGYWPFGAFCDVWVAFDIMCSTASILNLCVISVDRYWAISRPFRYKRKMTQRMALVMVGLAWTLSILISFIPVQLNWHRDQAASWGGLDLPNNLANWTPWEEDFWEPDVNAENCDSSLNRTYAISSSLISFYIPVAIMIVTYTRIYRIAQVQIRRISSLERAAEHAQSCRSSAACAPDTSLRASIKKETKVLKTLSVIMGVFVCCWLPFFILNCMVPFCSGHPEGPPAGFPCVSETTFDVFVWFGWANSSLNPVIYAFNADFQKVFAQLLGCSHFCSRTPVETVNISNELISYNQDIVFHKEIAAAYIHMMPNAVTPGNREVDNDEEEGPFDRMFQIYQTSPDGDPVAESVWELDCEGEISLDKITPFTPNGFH
Beta-2 adrenergic receptor (Homo sapiens), sequence (P07550 whole entry, looked up): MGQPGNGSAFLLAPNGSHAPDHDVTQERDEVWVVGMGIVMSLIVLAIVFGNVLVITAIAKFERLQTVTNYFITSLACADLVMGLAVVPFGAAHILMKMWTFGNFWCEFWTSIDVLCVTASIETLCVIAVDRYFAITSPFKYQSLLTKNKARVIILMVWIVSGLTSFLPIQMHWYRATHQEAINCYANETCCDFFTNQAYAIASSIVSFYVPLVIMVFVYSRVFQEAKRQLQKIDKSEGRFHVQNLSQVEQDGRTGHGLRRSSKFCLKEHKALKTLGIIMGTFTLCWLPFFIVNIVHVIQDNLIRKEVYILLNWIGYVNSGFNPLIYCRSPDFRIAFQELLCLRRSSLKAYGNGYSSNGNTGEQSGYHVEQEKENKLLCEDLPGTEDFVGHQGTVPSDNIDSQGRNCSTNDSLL
5-hydroxytryptamine receptor 1B (Homo sapiens), sequence (P28222 whole entry): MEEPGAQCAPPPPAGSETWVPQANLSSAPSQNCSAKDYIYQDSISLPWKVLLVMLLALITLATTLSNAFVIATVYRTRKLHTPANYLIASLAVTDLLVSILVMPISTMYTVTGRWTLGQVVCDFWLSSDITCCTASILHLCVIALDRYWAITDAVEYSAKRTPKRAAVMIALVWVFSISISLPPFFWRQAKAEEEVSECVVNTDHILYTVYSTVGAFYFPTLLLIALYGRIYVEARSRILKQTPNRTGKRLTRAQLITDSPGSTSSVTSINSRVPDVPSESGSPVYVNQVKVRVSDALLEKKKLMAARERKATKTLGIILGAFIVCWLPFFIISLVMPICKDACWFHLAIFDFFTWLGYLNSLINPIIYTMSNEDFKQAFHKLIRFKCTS
5-hydroxytryptamine receptor 6 (Homo sapiens), sequence (P50406 whole entry): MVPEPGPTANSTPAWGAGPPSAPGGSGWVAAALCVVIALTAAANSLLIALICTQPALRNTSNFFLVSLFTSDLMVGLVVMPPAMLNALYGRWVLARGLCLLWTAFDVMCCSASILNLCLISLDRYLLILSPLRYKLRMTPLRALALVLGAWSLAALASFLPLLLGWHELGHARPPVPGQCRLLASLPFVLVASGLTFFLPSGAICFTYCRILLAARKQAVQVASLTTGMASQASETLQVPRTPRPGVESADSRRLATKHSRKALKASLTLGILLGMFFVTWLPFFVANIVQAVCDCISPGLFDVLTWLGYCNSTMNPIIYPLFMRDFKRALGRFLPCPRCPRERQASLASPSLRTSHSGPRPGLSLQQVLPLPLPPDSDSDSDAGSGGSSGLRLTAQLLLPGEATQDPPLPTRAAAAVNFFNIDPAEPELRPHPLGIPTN
Histamine H1 receptor (Homo sapiens), sequence (P35367 whole entry): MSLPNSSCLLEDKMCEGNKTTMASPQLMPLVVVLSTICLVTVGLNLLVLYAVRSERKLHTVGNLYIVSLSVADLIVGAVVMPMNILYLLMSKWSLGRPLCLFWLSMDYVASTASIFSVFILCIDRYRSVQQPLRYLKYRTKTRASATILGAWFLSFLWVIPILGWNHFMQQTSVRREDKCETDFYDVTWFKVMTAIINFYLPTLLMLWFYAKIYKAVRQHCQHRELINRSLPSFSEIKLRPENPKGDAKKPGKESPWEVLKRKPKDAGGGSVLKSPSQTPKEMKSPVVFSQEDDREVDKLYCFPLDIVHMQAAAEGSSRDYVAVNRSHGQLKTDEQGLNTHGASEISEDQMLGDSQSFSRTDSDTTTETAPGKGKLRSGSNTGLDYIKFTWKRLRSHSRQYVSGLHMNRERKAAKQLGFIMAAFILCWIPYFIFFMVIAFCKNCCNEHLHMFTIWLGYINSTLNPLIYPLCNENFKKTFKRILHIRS
D(1A) dopamine receptor (Homo sapiens), sequence (P21728 whole entry): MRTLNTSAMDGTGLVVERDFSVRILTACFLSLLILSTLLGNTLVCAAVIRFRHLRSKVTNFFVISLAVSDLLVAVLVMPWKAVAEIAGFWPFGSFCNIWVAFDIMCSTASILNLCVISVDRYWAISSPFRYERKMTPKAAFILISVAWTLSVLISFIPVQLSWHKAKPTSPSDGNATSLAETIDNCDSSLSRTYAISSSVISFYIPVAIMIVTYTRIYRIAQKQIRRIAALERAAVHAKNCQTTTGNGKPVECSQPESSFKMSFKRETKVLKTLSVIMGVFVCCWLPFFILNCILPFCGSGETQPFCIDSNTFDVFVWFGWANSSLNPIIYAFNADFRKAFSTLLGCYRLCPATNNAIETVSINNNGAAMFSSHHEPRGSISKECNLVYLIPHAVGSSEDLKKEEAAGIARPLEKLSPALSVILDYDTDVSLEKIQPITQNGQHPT
Histamine H3 receptor (Homo sapiens), sequence (Q9Y5N1 whole entry): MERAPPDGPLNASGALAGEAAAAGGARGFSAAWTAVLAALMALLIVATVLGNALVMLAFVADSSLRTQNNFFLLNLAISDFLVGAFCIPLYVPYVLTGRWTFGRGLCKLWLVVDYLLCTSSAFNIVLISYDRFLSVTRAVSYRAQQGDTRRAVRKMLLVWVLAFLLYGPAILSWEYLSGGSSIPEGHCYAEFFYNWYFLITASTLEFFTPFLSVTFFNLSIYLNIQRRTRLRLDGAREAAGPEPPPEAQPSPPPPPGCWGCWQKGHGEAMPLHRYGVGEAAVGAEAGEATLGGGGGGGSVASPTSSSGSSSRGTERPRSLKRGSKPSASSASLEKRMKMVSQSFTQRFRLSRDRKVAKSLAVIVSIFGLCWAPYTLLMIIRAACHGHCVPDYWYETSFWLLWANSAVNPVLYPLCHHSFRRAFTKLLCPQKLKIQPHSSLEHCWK
Sigma intracellular receptor 2 (Homo sapiens), sequence (Q5BJF2 whole entry): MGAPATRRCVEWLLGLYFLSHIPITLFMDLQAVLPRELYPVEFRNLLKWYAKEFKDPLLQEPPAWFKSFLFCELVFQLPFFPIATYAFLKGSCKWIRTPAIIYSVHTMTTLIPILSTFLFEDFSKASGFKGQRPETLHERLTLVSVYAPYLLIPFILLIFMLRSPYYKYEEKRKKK
Sigma non-opioid intracellular receptor 1 (Homo sapiens), sequence (Q99720 whole entry): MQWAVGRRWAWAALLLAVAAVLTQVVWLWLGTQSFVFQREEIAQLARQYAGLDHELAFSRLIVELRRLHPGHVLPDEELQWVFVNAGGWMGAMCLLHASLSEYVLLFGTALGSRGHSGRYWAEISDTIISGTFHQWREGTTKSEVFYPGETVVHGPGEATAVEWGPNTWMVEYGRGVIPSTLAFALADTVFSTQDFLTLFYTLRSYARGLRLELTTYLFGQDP
5-hydroxytryptamine receptor 2A (Homo sapiens), sequence (P28223 whole entry): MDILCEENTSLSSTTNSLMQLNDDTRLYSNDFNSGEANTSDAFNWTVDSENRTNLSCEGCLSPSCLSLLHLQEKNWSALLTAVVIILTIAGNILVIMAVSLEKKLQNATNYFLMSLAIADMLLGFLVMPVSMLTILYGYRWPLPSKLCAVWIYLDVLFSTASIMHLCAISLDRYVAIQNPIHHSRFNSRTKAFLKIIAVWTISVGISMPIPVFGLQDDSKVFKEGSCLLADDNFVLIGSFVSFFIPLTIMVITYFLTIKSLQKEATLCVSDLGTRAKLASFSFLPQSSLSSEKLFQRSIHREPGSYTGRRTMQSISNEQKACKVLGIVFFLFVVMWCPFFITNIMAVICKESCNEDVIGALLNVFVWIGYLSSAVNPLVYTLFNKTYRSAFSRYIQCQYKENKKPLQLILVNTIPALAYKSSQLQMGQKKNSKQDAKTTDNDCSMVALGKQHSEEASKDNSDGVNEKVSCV
D(2) dopamine receptor (Homo sapiens), sequence (P14416 whole entry): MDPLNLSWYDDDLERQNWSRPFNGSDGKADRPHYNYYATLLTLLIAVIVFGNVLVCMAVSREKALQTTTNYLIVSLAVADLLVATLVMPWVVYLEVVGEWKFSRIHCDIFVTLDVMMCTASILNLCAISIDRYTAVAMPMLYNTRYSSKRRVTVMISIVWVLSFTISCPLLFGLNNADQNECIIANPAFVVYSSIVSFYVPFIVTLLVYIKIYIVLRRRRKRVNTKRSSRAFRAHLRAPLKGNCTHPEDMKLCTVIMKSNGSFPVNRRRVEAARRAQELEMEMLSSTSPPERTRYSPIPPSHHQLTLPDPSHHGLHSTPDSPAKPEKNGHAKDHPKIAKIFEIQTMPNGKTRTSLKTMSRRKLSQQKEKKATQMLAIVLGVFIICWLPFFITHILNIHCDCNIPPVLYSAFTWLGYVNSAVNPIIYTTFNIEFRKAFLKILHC

Row | Compound | inhibition [1] [%] | inhibition [2] [%] | inhibition [3] [%] | inhibition [4] [%] | inhibition [5] [%] | inhibition [6] [%] | inhibition [7] [%] | inhibition [8] [%] | inhibition [9] [%] | inhibition [10] [%] | inhibition [11] [%] | inhibition [12] [%] | inhibition [13] [%] | inhibition [14] [%] | inhibition [15] [%] | inhibition [16] [%] | inhibition [17] [%] | inhibition [18] [%] | inhibition [19] [%] | inhibition [20] [%] | also measured
1 | COc1ccc(CNC(=O)c2cc(-c3cncc(Cl)c3)cnc2-c2ccccn2)nc1OC | 0.56 | 17.4 | -2.32 | 1.18 | -4.67 | -2.53 | 14.4 | 88.7 | 16.4 | -4.47 | 5.15 | -0.37 | 12.9 | 17.4 | -7.31 | -9.92 | -5.62 | – | – | – | –
2 | Cc1cn2cc(CC(=O)N3CCC4(CC3)CN(Cc3ccc(-n5nccn5)cc3Cl)C4)nc2s1 | -6.22 | 25.1 | 52.1 | -4.31 | 18.8 | 3.15 | 17.5 | -2.36 | 43.3 | – | -5.48 | 98.2 | -2.62 | 30.4 | 51.1 | 67.1 | 4.85 | 8.61 | -5.26 | 9.33 | –
3 | O=C1N/C(=N/c2ccccc2F)S/C1=C\c1ccc(C(=O)O)cc1 | -2.85 | 0.9 | 17.9 | 6.76 | -1.84 | -4.18 | 24.9 | -0.36 | 33.9 | -8.69 | -4.83 | -5.5 | 4.25 | 42.9 | 17.1 | 6.54 | 19 | – | – | – | –
4 | CC(C)Oc1ccccc1C(=O)Nc1ccccc1C(=O)Nc1cccc(S(=O)(=O)C(F)(F)F)c1 | -8.65 | 7.06 | – | 4.49 | -2.57 | -5.72 | 36.8 | 87.8 | -6.23 | – | – | 13.1 | -4.72 | 2.1 | -6.91 | -8.68 | – | – | – | – | inhibition [21]: -3.5%
5 | N[C@H](C(=O)O)c1ccc(C(=O)O)c(C(=O)O)c1 | – | 13.7 | 6.26 | – | 13.1 | 11.6 | 4.51 | 5.29 | – | -2.1 | 15 | 4.31 | -8.66 | 11.7 | – | 6.53 | 19.2 | -7.78 | – | – | –
6 | c1cc(CN2CCCNCCNCCCNCC2)ccc1CN1CCCNCCNCCCNCC1 | -9.28 | -1.67 | 15.3 | -5.65 | -4.5 | 80.5 | – | 0.83 | 22.5 | 4.06 | 11.2 | -4.94 | 33.9 | -5.42 | 62.3 | -4.45 | 1.3 | – | – | 7.87 | –
7 | COc1cc2nc(N3CCN(C(=O)c4ccco4)CC3)nc(N)c2cc1OC | 98.7 | 49.2 | 68 | 7.69 | 4.29 | 8.21 | 19.4 | – | 27.6 | 27.2 | 1.83 | – | 2.33 | – | – | 1.53 | – | 83.4 | 22.2 | 42.3 | inhibition [21]: 23.8%
8 | O=C(O)Cn1c(C(=O)Nc2nc(-c3ccccc3Cl)cs2)cc2ccccc21 | – | 14.1 | 9.14 | -2.39 | 19 | -1.46 | – | – | 36.6 | 11.2 | 13.6 | 0.53 | 3.11 | -9.22 | 6.86 | -7.21 | 38.3 | 18.6 | -2.06 | 8.83 | –
9 | O=c1ccn([C@@H]2O[C@H](COP(=O)(O)OP(=O)(O)OP(=O)(O)O)[C@@H](O)[C@H]2O)c(=O)[nH]1 | 2.2 | 90.1 | 35.3 | 20.2 | -0.41 | 5.87 | 11.9 | 46.4 | 34 | 7.75 | 4.53 | 5.24 | -2.1 | -0.29 | – | – | – | 16.9 | 45.1 | 11.6 | inhibition [21]: 3.3%
10 | N#Cc1c(O)nc(SCc2cccc(F)c2F)nc1C1CC1 | – | -6.52 | 18.2 | 28.4 | 7.91 | 18.8 | 9.18 | -3.85 | 8.9 | -9.63 | 4.02 | 5.27 | -5.94 | – | -6.12 | 5.94 | 38.9 | 8.42 | -8.29 | – | –
11 | COC(=O)[C@H]1[C@H]2C[C@H]3c4[nH]c5ccccc5c4CCN3C[C@H]2CC[C@@H]1O | 66.2 | 49.4 | 63.2 | 11.8 | -0.55 | 7.16 | 85.3 | – | 22.8 | 98.4 | 8.74 | – | 96 | – | – | -6.47 | – | 48.2 | 32.4 | 98.3 | inhibition [21]: 85.2%
12 | Cc1ccc(O)c([C@H](CCN(C(C)C)C(C)C)c2ccccc2)c1 | 0.77 | 42.6 | 90.9 | – | -8.98 | 4.65 | – | 11.4 | 96.9 | 25.3 | -9.16 | 99.8 | – | 83.1 | 99.2 | 19.5 | 41.2 | – | -4.98 | 20.2 | –
